Source: patent publication US10711029B2, “Beta-d-2′-deoxy-2′-alpha-fluoro-2′-beta-c-substituted-4′fluoro-n6-substituted-6-amino-2-substituted purine nucleotides for the treatment of hepatitis c virus infection” (Atea Pharmaceuticals, Inc., priority 2016, dated 2020)

Experiments:
[1] = target: HCV RNA-dependent RNA polymerase (Hepatitis C virus genotype 1a, UniProt P27958); conditions: Ivanov et al., Russian J. Bioorg. Chem. 2010; cited from earlier work
[2] = Cytotoxicity in the replicon cells (staining with STT); type: cell-based; conditions: human, Huh-7 luc/neo ET cells, read-out: HCV Replicon CC50
Protocol: (§1) Huh-7 luc/neo ET cells bearing a discistronic HCV genotype 1b luciferase reporter replicon were plated at 7.5×10^3 cells/mi in duplicate 96-well plates for the parallel determination of antiviral efficacy (EC50) and cytotoxicity (TC50). The plates were cultured for 24 hours prior to the addition of compounds. Six serial one half log dilutions of the test articles (high test concentration of 100.0 μM. or high test concentration of 1.0 μM) and human interferon-alpha2b (high test 10.0 U/ml) were prepared in cell culture medium and added to the cultured cells in triplicate wells for each dilution. Six wells in the test plates received medium alone as an untreated control. Following 72 hours of culture in the presence of compound, one of the plates was used for the determination of cytotoxicity by staining with STT and the other for antiviral efficacy by determination of luciferase reporter activity. Cytotoxicity and efficacy data were collected and imported into a customized Excel workbook for determination of the TC50 and EC50 values.

[3] = system: HCV genotype 1b luciferase reporter replicon; experiment: HCV replicon assay, antiviral efficacy by luciferase reporter activity; type: cell-based
Protocol: as §1

Huh-7 luc/neo ET cells = experiment: Cytotoxicity in the replicon cells (staining with STT); type: cell-based; conditions: 72 hours, read-out: HCV Replicon CC50
Protocol: as §1

adenosine deaminase = target: T1, adenosine deaminase (Homo sapiens, UniProt P00813); conditions: over a long period (120 minutes); WO 2010/091386; cited from earlier work
T1 sequence (P00813 1-363): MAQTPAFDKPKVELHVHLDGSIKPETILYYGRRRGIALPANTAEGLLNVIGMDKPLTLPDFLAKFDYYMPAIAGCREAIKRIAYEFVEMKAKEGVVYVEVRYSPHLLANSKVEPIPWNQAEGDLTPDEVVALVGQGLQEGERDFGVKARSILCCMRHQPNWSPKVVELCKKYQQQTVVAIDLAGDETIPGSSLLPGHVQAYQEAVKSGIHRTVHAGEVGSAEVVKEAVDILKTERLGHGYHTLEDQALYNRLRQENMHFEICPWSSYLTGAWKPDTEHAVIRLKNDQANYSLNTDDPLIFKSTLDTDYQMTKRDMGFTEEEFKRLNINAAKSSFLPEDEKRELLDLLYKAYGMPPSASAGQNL

HCV RNA-dependent RNA polymerase, sequence (P27958 2421-3011): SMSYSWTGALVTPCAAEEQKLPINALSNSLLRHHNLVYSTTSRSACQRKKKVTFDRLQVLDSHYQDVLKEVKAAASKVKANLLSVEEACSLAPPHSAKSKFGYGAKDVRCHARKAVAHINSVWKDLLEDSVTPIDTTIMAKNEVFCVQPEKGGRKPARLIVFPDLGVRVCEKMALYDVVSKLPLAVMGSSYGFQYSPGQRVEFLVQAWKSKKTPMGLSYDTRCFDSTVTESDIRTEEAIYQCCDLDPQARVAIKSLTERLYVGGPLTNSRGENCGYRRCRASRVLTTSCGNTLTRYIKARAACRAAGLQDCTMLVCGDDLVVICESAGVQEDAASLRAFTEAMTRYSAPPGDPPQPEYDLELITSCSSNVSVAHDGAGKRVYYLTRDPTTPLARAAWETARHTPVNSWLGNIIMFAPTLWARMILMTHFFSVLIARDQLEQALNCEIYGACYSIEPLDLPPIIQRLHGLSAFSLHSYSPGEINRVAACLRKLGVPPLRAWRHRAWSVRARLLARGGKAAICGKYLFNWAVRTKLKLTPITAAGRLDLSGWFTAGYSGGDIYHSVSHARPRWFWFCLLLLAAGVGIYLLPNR

Structure (SMILES) | CC50 at 72 h [2] [µM] | Fold increase in activity compared to parent nucleoside [3] | further results
O=c1ccn([C@@H]2O[C@](F)(COP(=O)(O)OP(=O)(O)OP(=O)(O)O)[C@@H](O)[C@H]2O)c(=O)[nH]1 [4′fluorouridine 5′-O-triphosphate] |  |  | inhibition of HCV RNA-dependent RNA polymerase [1]: effective inhibitor
CN(C)c1nc(N)nc2c1ncn2[C@@H]1O[C@](F)(CO)C(O)[C@@]1(C)F (stereo partly drawn) [Cmpd 1] | > 100 |  | 
CC(C)OC(=O)[C@H](C)NP(=O)(OC[C@@]1(F)O[C@@H](n2cnc3c(N(C)C)nc(N)nc32)[C@](C)(F)C1O)Oc1ccccc1 (stereo partly drawn) [Cmpd 2] | > 10 | 2,941 | 
CN(c1nc(N)nc2c1ncn2[C@@H]1O[C@](F)(CO)C(O)[C@@]1(C)F)C1CC1 (stereo partly drawn) [Cmpd 3] | > 100 |  | 
CC(C)OC(=O)[C@H](C)NP(=O)(OC[C@@]1(F)O[C@@H](n2cnc3c(N(C)C4CC4)nc(N)nc32)[C@](C)(F)C1O)Oc1ccccc1 (stereo partly drawn) [Cmpd 4] |  | 667 | CC50 (Huh-7 luc/neo ET cells): > 10 µM
CNc1nc(N)nc2c1ncn2[C@@H]1O[C@](F)(CO)C(O)[C@@]1(C)F (stereo partly drawn) [Cmpd 5] | > 100 |  | 
CNc1nc(N)nc2c1ncn2[C@@H]1O[C@](F)(COP(=O)(N[C@@H](C)C(=O)OC(C)C)Oc2ccccc2)C(O)[C@@]1(C)F (stereo partly drawn) [Cmpd 6] | > 10 | 10,000 | 
CC(C)OC(=O)[C@H](C)N[P@](=O)(OC[C@@]1(F)O[C@@H](n2cnc3c(N(C)C)nc(F)nc32)[C@](C)(F)[C@@H]1O)Oc1ccccc1 [Cmpd 8] | 35.3 | 2521 | 
CNc1nc(F)nc2c1ncn2[C@@H]1O[C@](F)(CO[P@@](=O)(N[C@@H](C)C(=O)OC(C)C)Oc2ccccc2)[C@@H](O)[C@@]1(C)F [Cmpd 10] | 54 | 4.7 | 
C[C@@]1(F)C(O)[C@@](F)(CO)O[C@H]1n1cnc2c(N3CCCC3)nc(N)nc21 (stereo partly drawn) [Cmpd 11] | > 100 |  | 
CC(C)OC(=O)[C@H](C)NP(=O)(OC[C@@]1(F)O[C@@H](n2cnc3c(N4CCCC4)nc(N)nc32)[C@](C)(F)C1O)Oc1ccccc1 (stereo partly drawn) [Cmpd 12] | > 10 | >31.3 | 
CCN(C)c1nc(N)nc2c1ncn2[C@@H]1O[C@](F)(CO)C(O)[C@@]1(C)F (stereo partly drawn) [Cmpd 13] | > 100 |  | 
CCN(C)c1nc(N)nc2c1ncn2[C@@H]1O[C@](F)(COP(=O)(N[C@@H](C)C(=O)OC(C)C)Oc2ccccc2)C(O)[C@@]1(C)F (stereo partly drawn) [Cmpd 14] | > 10 | 434 | 
CC(C)OC(=O)[C@H](C)NP(=O)(OC[C@@]1(F)O[C@@H](n2cnc3c(N(C)C4CC4)nc(N)nc32)[C@](C)(F)C1O)Oc1ccccc1 (stereo partly drawn) [Cmpd 15] |  | 3332 | CC50 (Huh-7 luc/neo ET cells): > 50 µM
CC(C)OC(=O)[C@H](C)N[P@](=O)(OC[C@@]1(F)O[C@@H](n2cnc3c(N(C)C)nc(N)nc32)[C@](C)(F)C1O)Oc1ccccc1 (stereo partly drawn) [Cmpd 16] | > 50 | 40 | 
CNc1nc(F)nc2c1ncn2[C@@H]1O[C@](F)(CO[P@@](=O)(N[C@@H](C)C(=O)OC(C)C)Oc2ccccc2)C(O)[C@@]1(C)F (stereo partly drawn) [Cmpd 17] | > 50 | 4.3 | 
CN(C)c1nc(N)nc2[nH]cnc12 [N^6-dimethyl-2,6-diaminopurine] |  |  | deamination by adenosine deaminase (adenosine deaminase): not substantially deaminated
